Article PMC9909315, “SY-707, an ALK/FAK/IGF1R inhibitor, suppresses growth and metastasis of breast cancer cells” (Acta Biochimica et Biophysica Sinica, 2022)

Assays:
MCF-7 cells = assay: Would healing (migration) assay; format: cell-based; details: MCF-7, 24 h, vs control
Description: (§1) Totally, 5×10 ^5 cells were plated into each well of 6-well plates, and cultured to 70%–80% confluence, then the cell monolayer was gently and slowly scratched with a new 1-mL pipette tip across the center of the well. After scratching, the wells were gently washed with PBS twice to remove the detached cells, and replenished with fresh medium containing indicated concentration of compounds. The treated cells were allowed to grow for additional 24 h, and images were capturedunder a microscope. The migration distance were calculated and analyzed to evaluate the effects of compounds.

T47D cells = assay: Would healing (migration) assay; format: cell-based; details: 24 h, vs control
Description: as §1

T47D xenograft = assay: T47D tumor xenograft study; format: in vivo, nude mice
Description: Due to the strong cell growth inhibition potency of SY-707, we firstly evaluate its in vivo anti-cancer activity in T47D xenograft model mice. In this model, mice were orally administered twice a day with vehicle or SY-707 at dose of 100, 50 or 25 mg/kg after tumor size reached 150–300 mm ^3.
Next, we evaluated the combination effects of SY-707 and paclitaxel (an approved drug for breast cancer therapy) in T47D xenograft model. Mice bearing T47D breast cancer were divided randomly into 4 groups: vehicle, SY-707 (100 mg/kg/day), paclitaxel (10 mg/kg/week), and SY-707 plus paclitaxel groups.

[1] = tested on: 4T1 breast cancer metastasis to the lung; assay: Metastasis analysis in vivo (lung nodules, 4T1 model); set-up: species or system nude mice; details: 4T1, treatment alone: SY-707 100 mg/kg/day PO; paclitaxel 10 or 20 mg/kg/week IV; 20 days; not statistically different
Description: Metastasis was detected in mouse lungs after the mice were sacrificed at the last dosing day. The lungs of each mouse were excised immediately and fixed with 4% paraformaldehyde for 24 h, then the lungs were photographed (three photographs per section per mouse) and the metastatic nodules in the lungs were manually counted and the data was analyzed for compound evaluation.
Mice were inoculated with 4T1 cells in PBS at right and left flanks expect the normal control group ( Figure 6A), SY-707 with or without paclitaxel was administered for 20 days when tumor volumes reached 150–300 mm ^3. The mice were sacrificed on the last day of drug administration, then the lungs were collected and metastatic nodules were counted manually for the evaluation of metastasis of 4T1 breast cancer.
The normal group (A) and the vehicle group which treatment with 20% SBE (B) were control. Mouse lungs were taken at the last day of treatment and fixed with 4% paraformaldehyde for 24 h, then the lungs were photographed and the metastatic nodules were counted manually for further analysis. *P<0.05, **P<0.01.

Row | Compound | migration distance (MCF-7 cells) | migration distance (T47D cells) | tumor growth inhibition rate (T47D xenograft; reference compound group, 21 days, dose not given) [%] | tumor growth inhibition rate (T47D xenograft; combination study, paclitaxel 10 mg/kg/week alone, 24 days, P<0.05) [%] | number of metastatic nodules in the lungs vs vehicle group [1]
1 | CN(c1ncccc1CNc1nc(Nc2ccc3c(c2)CC(=O)N3)ncc1C(F)(F)F)S(C)(=O)=O [PF-562271, reference compound] | significant reduction of migration | significant reduction of migration | 20 |  | 
2 | CC(=O)O[C@H]1C(=O)[C@@]2(C)[C@H]([C@H](OC(=O)c3ccccc3)[C@]3(O)C[C@H](OC(=O)[C@H](O)[C@@H](NC(=O)c4ccccc4)c4ccccc4)C(C)=C1C3(C)C)[C@]1(OC(C)=O)CO[C@@H]1C[C@@H]2O [paclitaxel, reference compound] |  |  |  | 24 | reduced the number of metastatic nodules
